Test results published in patent US11613750B2, “Methods of reducing virus molecule levels” (priority 2019, dated 2023).

Experiments:
HBeAg = details: for HBeAg reduction HepG2.2.15 cells: 10 nM siRNA transfected into cells
Experimental: HBeAg in the cell culture media was assessed using ELISAs.
(§1) The ability of siRNAs targeting host factors that then results in the reduced production of multiple HBV molecules was evaluated by quantifying the amount of HBsAg, HBeAg, and Core protein produced by HepG2.2.15 cells after contacting with 10 nM of siRNAs that target HNRNPA2B1, GRP78, RPLP1, RPLP2, and SRSF1. We also contacted the cells with 5 nM of each set of siRNAs that targets both RPLP1 and RPLP2. The level of HBsAg, HBeAg, and Core were all determined using ELISAs.
(§2) The library of siRNAs of Example A5 were tested for the reduction of HBsAg secreted by HepG2.2.15 cells and in HBV virions.

HBsAg = details: HepG2.2.15 cells; for EC50: read-out: EC50, Extracell. HBsAg reduction
Experimental: (§3) Cell viability was assessed by ATP levels determined using the CellTiter-Glo reagent and the results normalized to the level in mock-treated cells. HBsAg levels were quantified using ELISA and the data normalized to the level in the mock-treated cells.
The cellular proteins GRP78/BIP, SRSF1, HNRNPA2B1, RPLP1, and RPLP2 were identified as having roles in HBV replication and infection. Various siRNAs and combinations thereof targeting the RNAs encoding these proteins were contacted with HepG2.2.15 cells at a final concentration of 7.5 nM.
The EC50 values of several siRNAs and combinations of siRNAs targeting HNRNPA2B1, GRP78, RPLP1, RPLP2, and/or SRSF1 were determined with respect to the ability to reduce HBsAg levels in HepG2.2.15 cells.
as §1, §2

RPLP1 mRNA = assay: Target mRNA reduction by RT-qPCR in HepG2.2.15 cells; type: cell-based, human; details: 10 nM siRNA
Description: (§4) The siRNAs identified as described in Example A6 should function by a mechanism that includes being loaded in the RISC complex to cleave the cognate mRNA, leading to the degradation of the mRNA. To examine whether the siRNAs are effective in reducing the target mRNA, we used reverse transcription coupled with quantitative polymerase chain reaction (RT-qPCR) to assess the level of the target mRNA in HepG2.2.15 cells. All 32 siRNAs described in Table 2 reduced the mRNA by more than 75% (Table 3).

HepG2.2.15 cells = assay: HepG2.2.15 cell viability, CellTiter-Glo; details: for CC50: read-out: CC50, HepG2.2.15 cell viability, highest concentration tested 80 nM
Experimental: as §3
The effects on cell viability were quantified using the CellTiter-Glo reagent. All data were normalized to the amount of protein produced by mock-treated cells.
as §2

RPLP1 protein = assay: Target protein reduction by Western blot in HepG2.2.15 cells; type: cell-based, human; details: 10 nM siRNA, 72 h
Experimental: (§5) The host factors likely function in viral infection as proteins. Therefore, we determined whether the siRNAs could decrease the amounts of the target protein. Cell transfected with 10 nM of each siRNA for 72 h were lysed and the target proteins identified using Western blots probed with target-specific antibodies. The effective siRNAs described in Table 3 reduced the levels of the proteins by between 28 and 92% of the mock-treated samples. The reduction in the proteins is less than the reduction of the target mRNA, likely due to the proteins have prolonged half-life and that more time is needed for their degradation. […] We reason that this is due to RPLP1 and RPLP2 functioning as heterodimers such that a decrease of one protein increases the vulnerability of the other protein to degradation. Similar concomitant decrease of the proteins was reported by Campos et al. (17). Finally, the levels of two cellular proteins that are not targeted by the siRNAs, P54nrb and GAPDH, were unaffected.

HCoV-OC43 = assay: OC43 virion RNA, Branched DNA assay, infected HCT8 cells; type: cell-based, human coronavirus OC43; details: for OC43 vRNA reduction siRNA and siGRP78: 10 nM siRNA along with 10 nM of siRNA targeting GRP78, HCT8 cells; for OC43 vRNA reduction: 10 nM siRNA, HCT8 cells
Experimental: The siRNAs were transfected in the HCT8 cells at a final concentration of 10 nM. A positive control for the inhibition of Coronavirus infection, Remdesivir (Rem), was used at 0.9 μM. The virion RNAs (vRNAs) were quantified using a Branched DNA assay specific for OC43 RNA.
The two siRNAs are those referred to by compound number (see Table 2) in the horizontal bar, along with siRNA targeting GRP78, siGRP78. A positive control for the inhibition of Coronavirus infection, Remdesivir (Rem), was used at 0.9 μM. The vRNAs were quantified using a Branched DNA assay specific for OC43 RNA.
The siRNAs listed in Table 2 were transfected into human colon epithelial HCT8 cells and the amount of OC43 virion produced was quantified. In these assays, the OC43 vRNA was quantified using a Branched DNA assay (QuantiGene gene expression assay: ThermoFisher). As a positive inhibitory control, the infected cells were treated with Remdesivir. […] Examples of the inhibition of OC43 vRNA are illustrated in FIG. 5A.
A combination of siRNAs targeting the host factor should more robustly reduce OC43 virion production. To illustrate this, HCT8 cells were transfected with 10 nM of siRNAs from Table 2 along with 10 nM of siRNA targeting GRP78. The virion RNAs produced were quantified using the Branched DNA assay. […] A combination of siRNAs targeting host factors GRP78, SRSF1, RPLP1 and RPLP2 can lead to significant reduction in the production of human Coronavirus virion RNA from infected cells.

RPLP2 mRNA = assay: Target mRNA reduction by RT-qPCR in HepG2.2.15 cells; type: cell-based, human; details: 10 nM siRNA
Description: as §4

RPLP2 protein = assay: Target protein reduction by Western blot in HepG2.2.15 cells; type: cell-based, human; details: 10 nM siRNA, 72 h
Experimental: as §5

Row | Substance | HBeAg reduction HepG2.2.15 cells (HBeAg) | HBeAg level, siRNA library (HBeAg; HepG2.2.15 cells, Example A6, FIG. 5A) | HBsAg level, dose response (HBsAg; FIG. 5A) | EC50 (HBsAg) | Target RNA reduction in HepG2.2.15 cells (RPLP1 mRNA) | CC50 (HepG2.2.15 cells) | cytotoxicity / cell viability, siRNA library (HepG2.2.15 cells; up to the highest concentration tested, 80 nM) | Target protein reduction in HepG2.2.15 cells (RPLP1 protein) | OC43 vRNA reduction siRNA and siGRP78 (HCoV-OC43) | OC43 vRNA reduction (HCoV-OC43) | Target RNA reduction in HepG2.2.15 cells (RPLP2 mRNA) | Target protein reduction in HepG2.2.15 cells (RPLP2 protein)
1 | 24 (GCAAAGAAAGAAGAAUCCGTTCGGAUUCUUCUUUCUUUGCTT; siRNA; Self-complementary hairpin strand, chemistry not given here, further chemistry not given here; listed as Homo sapiens) [compound 24] | 66 ± 2% | inhibited the levels of HBsAg and HBeAg | dose-dependent reduction of HBV S-antigen (HBsAg) | 0.359 nM | 80 ± 1% | > 80 nM | without affecting cell viability | 48 ± 3% | 94 ± 4% | 89 ± 8% |  | 
2 | 31 (UUUGGCCUGGCUUGUUUGCAAUUUUGCAAACAAGCCAGGCCAAAUU; siRNA; Self-complementary hairpin strand, chemistry not given here, further chemistry not given here; listed as Homo sapiens) [compound 31] |  |  |  | 0.012 nM | 84 ± 4% | > 80 nM |  | 37 ± 7% | 82 ± 6% | 82 ± 4% |  | 
3 | 33 (UUGGUCUUUUUGACUAAACCUUUAGGUUUAGUCAAAAAGACCAAUU; siRNA; Self-complementary hairpin strand, chemistry not given here, further chemistry not given here; listed as Homo sapiens) [compound 33] |  |  |  | 1.54 nM | 83 ± 6% | > 80 nM |  | 28 ± 4% |  |  |  | 
4 | 45 (GGAAAAAACAUUGAAGACGUCUUGACGUCUUCAAUGUUUUUUCCUU; siRNA; Self-complementary hairpin strand, chemistry not given here, further chemistry not given here; listed as Homo sapiens) [compound 45] | 42 ± 5% |  |  | 0.013 nM |  | > 80 nM |  |  | 89 ± 2% |  | 98 ± 1% | 61 ± 7%
5 | 46 (GAAAGAUGAGAAGAAGGAGGAUUUCCUCCUUCUUCUCAUCUUUCUU; siRNA; Self-complementary hairpin strand, chemistry not given here, further chemistry not given here; listed as Homo sapiens) [compound 46] | 44 ± 5% |  |  | 1.1 nM |  | > 80 nM |  |  | 87 ± 4% |  | 98 ± 1% | 56 ± 8%
6 | 47 (UGGCCUUUUUGAUUAAAUUTTAAUUUAAUCAAAAAGGCCAAA; siRNA; Self-complementary hairpin strand, chemistry not given here, further chemistry not given here; listed as Homo sapiens) [compound 47] | 38 ± 5% |  |  | 0.07 nM |  | > 80 nM |  |  | 89 ± 2% |  | 97 ± 3% | 67 ± 5%
7 | 48 (GCGCCAAGGACAUCAAGAATTUUCUUGAUGUCCUUGGCGCAA; siRNA; Self-complementary hairpin strand, chemistry not given here, further chemistry not given here; listed as Homo sapiens) [compound 48] | 32 ± 5% |  |  | 0.1 nM |  | > 80 nM |  |  | 88 ± 5% |  | 97 ± 0% | 54 ± 8%
8 | 49 (AAACAUUGAAGACGUCAUUTTAAUGACGUCUUCAAUGUUUTT; siRNA; Self-complementary hairpin strand, chemistry not given here, further chemistry not given here; listed as Homo sapiens) [compound 49] | 32 ± 6% |  |  | 0.026 nM |  | > 80 nM |  |  | 91 ± 3% |  | 98 ± 1% | 59 ± 4%
9 | 50 (CGACCGGCUCAACAAGGUUTTAACCUUGUUGAGCCGGUCGTC; siRNA; Self-complementary hairpin strand, chemistry not given here, further chemistry not given here; listed as Homo sapiens) [compound 50] | 42 ± 5% |  |  | 0.095 nM |  | > 80 nM |  |  | 91 ± 2% |  | 98 ± 1% | 48 ± 2%
10 | 51 (GAAGAUCUUGGACAGCGUGTTCACGCUGUCCAAGAUCUUCTT; siRNA; Self-complementary hairpin strand, chemistry not given here, further chemistry not given here; listed as Homo sapiens) [compound 51] | 32 ± 4% |  |  | 0.1 nM |  | > 80 nM |  |  | 90 ± 2% |  | 98 ± 0% | 56 ± 5%
11 | 52 (CAAGGUUAUCAGUGUGCUGTTCAGCACACUGAUAACCUUGTT; siRNA; Self-complementary hairpin strand, chemistry not given here, further chemistry not given here; listed as Homo sapiens) [compound 52] | 54 ± 5% |  |  | 0.06 nM |  | > 80 nM |  |  | 91 ± 2% |  | 98 ± 1% | 58 ± 1%
